Test: pH / titration curve of 4% diclofenac sodium in water
Type: physicochemical

- pH of diclofenac in water (4% diclofenac sodium in water): around 7.8
- buffering capacity to adjust the pH by 1 unit (strong acid or base): 0.625 mMoles
SMILES: O=C(O)Cc1ccccc1Nc1c(Cl)cccc1Cl [diclofenac, 2-[2-(2,6-dichloroanilino)phenyl]acetic acid]

— US20260232574A1, “COMPOSITIONS AND METHODS FOR TREATING DYSMENORRHEA” (Daré Bioscience, Inc., priority 2023, published 2026)
